Test results from patent US5159085A, “2-anilino phenylacetic acid derivatives as inhibitors of PLA2 and lipoxygenase” (American Home Products Corporation, priority 1991, dated 1992).
Where two headings read alike, the source gives them in different places.

Columns and labels:
[1] = target: T1, human platelet PLA2 (Homo sapiens, UniProt P14555); assay: In vitro isolated phospholipase A2 assay, human platelet PLA2 (arachidonic acid release from 3H-AA E. coli substrate); assay type: biochemical
T1 construct: Semipurified human platelet acid extract PLA2; from tissue; host or cells: human platelets (semipurified acid extract)
T1 sequence (P14555 21-144): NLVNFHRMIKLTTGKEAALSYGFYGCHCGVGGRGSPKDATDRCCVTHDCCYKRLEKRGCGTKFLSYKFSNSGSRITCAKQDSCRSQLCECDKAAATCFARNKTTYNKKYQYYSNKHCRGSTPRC

[2] = test system: 6-keto-PGF1α /TxB2; assay: In vivo murine zymosan peritonitis assay, 6-keto-PGF1α (cyclooxygenase pathway); design: species or system mouse (male CD-1)
Protocol: The compounds of the invention are evaluated for their ability to inhibit the lipoxygenase and/or cyclooxygenase pathways of arachidonic acid metabolism in the in vivo murine zymosan peritonitis assay.
(§1) This assay is carried out as follows:
Male CD-1 mice (8 weeks old) are placed in plastic boxes in groups of six. Animals are injected with 1 ml i.p. of either 1% zymosan in pyrogen free 0.9% saline or saline (unstimulated control). Compounds are dosed orally 1 hour prior to zymosan injection. Twenty minutes after zymosan injection, the mice are asphyxiated by CO2 inhalation and the peritoneal cavity is lavaged with 2 ml ice cold Hanks Balanced Salt Solution (HBSS) without CaCl2, MgSO4 ·7H2 O and MgCL2 ·6H2 O. Peritoneal lavage fluid from each mouse is removed by syringe and placed in 5 ml plastic test tubes put on ice and volume is noted. Preparation of samples for evaluation by ELISA is as follows: Samples are centrifuged at 800×g for 15 minutes; 1 ml of the supernatant is added to 8 ml ice cold methanol and kept at -70° C. overnight to precipitate protein; and samples are then centrifuged at 800×g for 15 minutes, followed by a drying procedure in a Savant speed vac concentrator. The samples are reconstituted with 1 ml ice cold ELISA buffer and stored at -70° C. until assayed. The assay for eicosanoids (LTC4 and 6-keto-PGF1α) is performed according to conventional ELISA procedures.
Compounds to be tested orally are suspended in 0.5% Tween 80. Compounds to be tested intraperitoneally are suspended in 0.5% methylcellulose in 0.9% saline.
The total metabolite level in lavage fluid/mouse is calculated and the significance is determined by a one-way analysis of variance with LSD comparisons to control (p≤0.05). Drug effects are expressed as a percent change from control values.

[3] = test system: paw edema induced by exogenous PLA2 (snake, A. piscivorus piscivorus); assay: In vivo PLA2 murine paw edema assay; design: species or system mouse (male CD-1)
Protocol: The ability of the compounds of the invention to inhibit paw edema induced by the exogenous administration of PLA2 is measured in the in vivo PLA2 murine paw edema assay.
The assay is carried out as follows:
Non-fasted, male CD-1 mice (8 weeks old; 31-36 grams) are placed in plastic boxes in groups of six. The right hind paw volume is measured using mercury plethysmography (zero time). […] A solution of purified PLA2, from the diamond back cotton mouth snake (A. piscivorus piscivorus) is prepared in saline at a concentration of 6 μg/ml. Fifty (50) μl (0.3 μg) of this PLA2 solution is injected subcutaneously into the right hind paw with a plastic 1 ml plastic syringe (27 gauge, 1" needle). Paw volume of the injected paw is measured again at 10 minutes, 30 minutes and 60 minutes after PLA2 injection. Animals are euthanized with CO2 at the completion of the study.
The paw edema is calculated by subtracting the zero time volume from the volume recorded at each time period. Mean paw edema for each treatment group is then calculated and expressed as (μl±S.E.). Drug effects are expressed as a percent change from control (vehicle) values. Statistical significance is determined by a one-way analysis of variance with LSD comparison to control (p<0.05). ED50 's are determined using repression analysis.

[4] = test system: carrageenan paw edema; assay: Rat carrageenan paw edema assay; assay type: in vivo, rat (male Sprague-Dawley)
Protocol: The compounds of the invention are further tested in the rat carrageenan paw edema assay to determine their ability to inhibit the acute inflammatory response.
as §1
140-180 gm Male Sprague-Dawley rats, in groups of 6 animals are injected subcutaneously in the right paw with 0.1 ml of 1% carrageenan at zero time. Mercury plethysmographic readings (ml) of the paw are made at zero time and 3 hours later. Test compounds are suspended or dissolved in 0.5% methylcellulose and given perorally 1 hour prior to carrageenan administration.
The increase in paw volume (edema in ml) produced by the carrageenan is measured. Paw edema is calculated (3 hour volume minus zero time volume), and percent inhibition of edema is determined. Unpaired Student's t-test is used to determine statistical significance.

[5] = target: T2, human synovial fluid PLA2 (Homo sapiens, UniProt P14555); assay: In vitro isolated phospholipase A2 assay, human synovial fluid PLA2; assay type: biochemical
T2 construct: Purified human synovial fluid; from tissue; host or cells: human synovial fluid
T2 sequence (P14555 21-144): T1 sequence (P14555 21-144)
Protocol: The compounds of the invention are tested in an in vitro isolated phospholipase A2 assay to determine the ability of the test compounds to inhibit the release of arachidonic acid from an arachidonic acid-containing substrate by the action of phospholipase A2 enzyme from human and non-human sources.
as §1
Into a 15 mL polypropylene tube are added the following:
*pre-incubate at room temperature 30 min prior to substrate addition.
^5 Stock 10 mM prepared in dimethyl sulfoxide. Make 1:2 dilution with
dimethyl sulfoxide and add 1 μ L to 100 μL assay tube.
^6 Two human PLA2 enzymes are used:
b) Purified human synovial fluid.
Incubate the 100 μL reaction mixture for 10 minutes at 37° C. in a shaking water bath. The reaction is terminated by the addition of 2 mL tetrahydrofuran, followed by vortexing. NH2 columns (100 μg/mL--Analytichem International) are conditioned with 0.5 mL tetrahydrofuran followed by 0.5 mL tetrahydrofuran/water (2 mL:0.1 mL, v/v).
The sample is loaded onto the columns and slowly drawn through them. The hydrolyzed arachidonic acid retained in the columns is eluted therefrom with 1 mL tetrahydrofuran/glacial acetic acid (2%). The arachidonic acid is transferred to scintillation vials and quantitated by β-counting analysis. A "total counts" sample is prepared by pipetting 25 μL ^3 H-arachidonate E. coli directly into a scintillation vial to which is added 1 mL tetrahydrofuran. 10 mL aquasol (scintillation cocktail) is added to all samples. [formula]

O=C(O)Cc1cc(OCc2ccc3ccccc3n2)ccc1Nc1c(Cl)cccc1Cl [Example 2, 2-[(2,6-Dichlorophenyl)amino]-5-(2-quinolylmethoxy)benzene acetic acid]
inhibition at 10 µM ([1]; 10 μM, Table IV, read-out: % Inhibition at a concentration of 10 μM, HP): 12.7%
% Inhibition 6-keto-PGF ([2]; 50 mg/kg p.o., negative values denote potentiation): -25%
% Inhibition 6-keto-PGF ([2]; 100 mg/kg p.o.): 65%
% Change in Edema 10 min ([3]; 10 mg/kg i.v.): -45%
% Change in Edema 30 min ([3]; 10 mg/kg i.v.): -37%
% Change in Edema 60 min ([3]; 10 mg/kg i.v.): -32%
% Change in Edema 10 min ([3]; 100 mg/kg p.o.): -52%
% Change in Edema 30 min ([3]; 100 mg/kg p.o.): -48%
% Change in Edema 60 min ([3]; 100 mg/kg p.o.): -28%
% Inhibition ([4]; 25 mg/kg peroral): 63%
% Inhibition ([4]; 50 mg/kg peroral): 58%
% Inhibition ([4]; 100 mg/kg peroral): 66%
inhibition at 10 µM ([5]; 10 μM, Table IV, read-out: % Inhibition at a concentration of 10 μM, HSF): 47.6%
IC50 ([5]; human synovial fluid): 6.3 µM

O=C(O)Cc1ccccc1Nc1c(Cl)cccc1Cl [diclofenac, reference compound]
inhibition at 10 µM ([1]; read-out: % Inhibition at 10 μM HP): 23%
ED50 ([2]; Mus musculus, po, read-out: ED50 6-keto-PGF): 0.77 mg/kg
% Change in Edema 10 min ([3]; 10 mg/kg i.v.): -19%
% Change in Edema 30 min ([3]; 10 mg/kg i.v.): -15%
% Change in Edema 60 min ([3]; 10 mg/kg i.v.): -1%
% Change in Edema 10 min ([3]; 100 mg/kg p.o.): -28%
% Change in Edema 30 min ([3]; 100 mg/kg p.o.): -38%
% Change in Edema 60 min ([3]; 100 mg/kg p.o.): -15%
% Inhibition ([4]; 0.5 mg/kg peroral): 15%
% Inhibition ([4]; 2.0 mg/kg peroral): 50%
% Inhibition ([4]; 8.0 mg/kg peroral): 75%
ED50 ([4]; Rattus norvegicus, po, 3 h): 2.3 mg/kg
inhibition at 10 µM ([5]; read-out: % Inhibition at 10 μM HSF): 0%
